# Assay results from PubChem BioAssay AID328 (DTP/NCI, 2004).
# “And” between values parts separate entries of the source, which are not always exact repeats. Equal values may be shown once. Toxic doses and inconclusive results are not listed.
# Tested on: BDF1 mice, P388 leukemia ip, median survival T/C
# Experiment: NCI In Vivo Anticancer Drug Screen. Data for tumor model P388 Leukemia (intraperitoneal) in B6D2F1 (BDF1) mice
# Conditions: endpoint: median survival time, higher = longer survival
# How it was run: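 Reported as T/C, where T is the survival measurement in dosed animals and C the same measurement in vehicle controls.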
# [1] = dose: 25.0 mg/kg/injection, schedule: Q01DX009 (ip), vehicle: saline with Tween-80
# [2] = dose: 100.0 mg/kg/injection, schedule: Q04DX003 (ip), vehicle: saline
# [3] = dose: 200.0 mg/kg/injection, schedule: Q04DX003 (ip), vehicle: saline
# [4] = dose: 50.0 mg/kg/injection, schedule: Q01DX009 (ip), vehicle: Klucel (hydroxypropylcellulose) (HPC)
# [5] = dose: 50.0 mg/kg/injection, schedule: Q01DX009 (ip), vehicle: saline
# [6] = dose: 100.0 mg/kg/injection, schedule: Q01DX009 (ip), vehicle: saline
# [7] = dose: 100.0 mg/kg/injection, schedule: Q01DX001 (ip), vehicle: Klucel (hydroxypropylcellulose) (HPC)
smiles,measurement,setting,value
c1ccc([As+](c2ccccc2)(c2ccccc2)c2ccccc2)cc1,T/C,"dose: 0.1 mg/kg/injection, schedule: Q04DX003 (ip), vehicle: saline",110 % of control
same,T/C,"dose: 0.15 mg/kg/injection, schedule: Q01DX009 (ip), vehicle: saline",105 % of control
same,T/C,"dose: 0.15 mg/kg/injection, schedule: Q04DX003 (ip), vehicle: saline",105 % of control
same,T/C,"dose: 0.23 mg/kg/injection, schedule: Q01DX009 (ip), vehicle: saline",116 % of control
same,T/C,"dose: 0.36 mg/kg/injection, schedule: Q04DX003 (ip), vehicle: saline",110 % of control
same,T/C,"dose: 0.54 mg/kg/injection, schedule: Q01DX009 (ip), vehicle: saline",122 % of control
same,T/C,"dose: 0.55 mg/kg/injection, schedule: Q04DX003 (ip), vehicle: saline",165 % of control
same,T/C,"dose: 2.4 mg/kg/injection, schedule: Q01DX009 (ip), vehicle: saline",184 % of control
same,T/C,"dose: 2.5 mg/kg/injection, schedule: Q01DX009 (ip), vehicle: saline",155 % of control
same,T/C,"dose: 3.75 mg/kg/injection, schedule: Q01DX009 (ip), vehicle: saline",160 % of control and 161 % of control and 184 % of control
same,T/C,"dose: 5.0 mg/kg/injection, schedule: Q04DX003 (ip), vehicle: saline",150 % of control and 160 % of control
same,T/C,"dose: 5.6 mg/kg/injection, schedule: Q01DX009 (ip), vehicle: saline",121 % of control
same,T/C,"dose: 5.63 mg/kg/injection, schedule: Q01DX009 (ip), vehicle: saline",165 % of control
same,T/C,"dose: 7.5 mg/kg/injection, schedule: Q04DX003 (ip), vehicle: saline",150 % of control
COc1cc2c(cc1OC)[C@]13C[C@@H](OC)CC=C1CCN3CCC2,T/C,"dose: 5.0 mg/kg/injection, schedule: Q01DX009 (ip), vehicle: alcohol",100 % of control
same,T/C,"dose: 10.0 mg/kg/injection, schedule: Q01DX009 (ip), vehicle: alcohol",95 % of control
same,T/C,"dose: 20.0 mg/kg/injection, schedule: Q01DX009 (ip), vehicle: alcohol",90 % of control
same,T/C,"dose: 40.0 mg/kg/injection, schedule: Q01DX009 (ip), vehicle: alcohol",90 % of control
CCOC(=O)Oc1c(OC)cc(C(=O)O[C@@H]2C[C@@H]3CN4CCc5c([nH]c6cc(OC)ccc56)[C@H]4C[C@@H]3[C@H](C(=O)OC)[C@H]2OC)cc1OC,T/C,[1],100 % of control
COC(=O)c1cc(=O)nc(N/N=C/c2ccccc2)s1,T/C,"dose: 50.0 mg/kg/injection, schedule: Q01DX005 (ip), vehicle: saline with Tween-80",109 % of control
same,T/C,"dose: 100.0 mg/kg/injection, schedule: Q01DX005 (ip), vehicle: saline with Tween-80",110 % of control
same,T/C,"dose: 200.0 mg/kg/injection, schedule: Q01DX005 (ip), vehicle: saline with Tween-80",109 % of control
ClCC1CNC(c2ccccc2)O1 (stereo not given),T/C,"dose: 12.5 mg/kg/injection, schedule: Q04DX003 (ip), vehicle: saline with Tween-80",101 % of control
same,T/C,"dose: 25.0 mg/kg/injection, schedule: Q04DX003 (ip), vehicle: saline with Tween-80",104 % of control
CC(=O)NCCC(C)C,T/C,[2],104 % of control
same,T/C,[3],113 % of control
same,T/C,"dose: 400.0 mg/kg/injection, schedule: Q04DX003 (ip), vehicle: saline",109 % of control
Cc1cccc(-c2nc3cc(Cl)ccc3c(=O)o2)c1,T/C,[4],104 % of control
same,T/C,"dose: 50.0 mg/kg/injection, schedule: Q04DX003 (ip), vehicle: Klucel (hydroxypropylcellulose) (HPC)",95 % of control
same,T/C,"dose: 100.0 mg/kg/injection, schedule: Q01DX009 (ip), vehicle: Klucel (hydroxypropylcellulose) (HPC)",109 % of control
same,T/C,"dose: 100.0 mg/kg/injection, schedule: Q04DX003 (ip), vehicle: Klucel (hydroxypropylcellulose) (HPC)",100 % of control
same,T/C,"dose: 200.0 mg/kg/injection, schedule: Q04DX003 (ip), vehicle: Klucel (hydroxypropylcellulose) (HPC)",95 % of control
COC(=O)Nc1cccc(-c2nc3ccc(NC(=O)OC)cc3c(=O)n2-c2ccccc2)c1,T/C,"dose: 6.25 mg/kg/injection, schedule: Q01DX009 (ip), vehicle: Klucel (hydroxypropylcellulose) (HPC)",108 % of control
same,T/C,"dose: 12.5 mg/kg/injection, schedule: Q01DX009 (ip), vehicle: Klucel (hydroxypropylcellulose) (HPC)",117 % of control
same,T/C,"dose: 25.0 mg/kg/injection, schedule: Q01DX009 (ip), vehicle: saline",150 % of control
same,T/C,"dose: 25.0 mg/kg/injection, schedule: Q01DX009 (oral), vehicle: Klucel (hydroxypropylcellulose) (HPC)",107 % of control
same,T/C,[4],213 % of control
same,T/C,[5],155 % of control
same,T/C,"dose: 50.0 mg/kg/injection, schedule: Q01DX009 (oral), vehicle: Klucel (hydroxypropylcellulose) (HPC)",109 % of control
same,T/C,[6],186 % of control
same,T/C,"dose: 100.0 mg/kg/injection, schedule: Q01DX009 (oral), vehicle: Klucel (hydroxypropylcellulose) (HPC)",109 % of control
same,T/C,"dose: 800.0 mg/kg/injection, schedule: Q01DX009 (oral), vehicle: Klucel (hydroxypropylcellulose) (HPC)",155 % of control
CC1(C)COC(c2ccccc2)=N1,T/C,"dose: 100.0 mg/kg/injection, schedule: Q01DX001 (ip), vehicle: saline sonified",100 % of control
same,T/C,"dose: 200.0 mg/kg/injection, schedule: Q01DX001 (ip), vehicle: saline sonified",100 % of control
same,T/C,"dose: 400.0 mg/kg/injection, schedule: Q01DX001 (ip), vehicle: saline sonified",110 % of control
Brc1ccc(Oc2ccccc2)cc1,T/C,"dose: 100.0 mg/kg/injection, schedule: Q04DX003 (ip), vehicle: saline with Tween-80",122 % of control
same,T/C,"dose: 266.0 mg/kg/injection, schedule: Q04DX003 (ip), vehicle: saline with Tween-80",100 % of control
same,T/C,"dose: 400.0 mg/kg/injection, schedule: Q04DX003 (ip), vehicle: saline with Tween-80",103 % of control
same,T/C,"dose: 600.0 mg/kg/injection, schedule: Q04DX003 (ip), vehicle: saline with Tween-80",96 % of control
NC(N)=NCCCCCC(=O)Oc1ccc([N+](=O)[O-])cc1,T/C,[5],96 % of control
same,T/C,"dose: 50.0 mg/kg/injection, schedule: Q04DX003 (ip), vehicle: saline",90 % of control and 91 % of control
same,T/C,[6],99 % of control
same,T/C,[2],87 % of control and 90 % of control
same,T/C,"dose: 200.0 mg/kg/injection, schedule: Q01DX009 (ip), vehicle: saline",115 % of control
same,T/C,[3],91 % of control and 100 % of control
CCOc1ccc(NC(=O)C23CC4CC(CC(C4)C2)C3)cc1,T/C,"dose: 12.5 mg/kg/injection, schedule: Q01DX009 (ip), vehicle: saline with Tween-80",100 % of control
same,T/C,[1],100 % of control
same,T/C,"dose: 50.0 mg/kg/injection, schedule: Q01DX009 (ip), vehicle: saline with Tween-80",100 % of control
C[N+](C)(Cc1ccccc1)/N=C(\[O-])Cc1ccccc1,T/C,"dose: 50.0 mg/kg/injection, schedule: Q01DX001 (ip), vehicle: saline",109 % of control
same,T/C,"dose: 100.0 mg/kg/injection, schedule: Q01DX001 (ip), vehicle: saline",104 % of control
COC(=O)CSC/C(=N\Nc1ccccc1)c1ccccc1,T/C,[7],95 % of control
same,T/C,"dose: 200.0 mg/kg/injection, schedule: Q01DX001 (ip), vehicle: Klucel (hydroxypropylcellulose) (HPC)",100 % of control
same,T/C,"dose: 400.0 mg/kg/injection, schedule: Q01DX001 (ip), vehicle: Klucel (hydroxypropylcellulose) (HPC)",109 % of control
COc1c(O)ccc2c1c[n+](C)c1c3cc4c(cc3ccc21)OCO4,T/C,"dose: 4.0 mg/kg/injection, schedule: Q01DX009 (ip), vehicle: saline",113 % of control
same,T/C,"dose: 8.0 mg/kg/injection, schedule: Q01DX009 (ip), vehicle: saline",113 % of control
same,T/C,"dose: 16.0 mg/kg/injection, schedule: Q01DX009 (ip), vehicle: saline",106 % of control
C[N+](C)(CCCCOCCCC[N+](C)(C)Cc1ccc([N+](=O)[O-])cc1)Cc1ccc([N+](=O)[O-])cc1,T/C,"dose: 0.19 mg/kg/injection, schedule: Q01DX009 (ip), vehicle: saline with Tween-80",100 % of control
same,T/C,"dose: 0.37 mg/kg/injection, schedule: Q01DX009 (ip), vehicle: saline with Tween-80",104 % of control
same,T/C,"dose: 0.75 mg/kg/injection, schedule: Q01DX009 (ip), vehicle: saline with Tween-80",108 % of control
same,T/C,"dose: 1.5 mg/kg/injection, schedule: Q01DX009 (ip), vehicle: saline with Tween-80",96 % of control
same,T/C,"dose: 1.5 mg/kg/injection, schedule: Q04DX003 (ip), vehicle: saline with Tween-80",109 % of control
same,T/C,"dose: 3.0 mg/kg/injection, schedule: Q04DX003 (ip), vehicle: saline with Tween-80",104 % of control
c1ccc(C2C(c3ccnc4c3ccc3ccccc34)C(c3ccccc3)C2c2ccnc3c2ccc2ccccc23)cc1 (stereo not given),T/C,"dose: 25.0 mg/kg/injection, schedule: Q01DX001 (ip), vehicle: Klucel (hydroxypropylcellulose) (HPC)",93 % of control and 91 % of control
same,T/C,"dose: 50.0 mg/kg/injection, schedule: Q01DX001 (ip), vehicle: Klucel (hydroxypropylcellulose) (HPC)",97 % of control and 100 % of control
same,T/C,[7],100 % of control and 106 % of control
